Assay results taken from BigSolDB 2.1.

CS(=O)(=O)c1ccc(C=O)cc1
solubility (mole fraction)
Settings | in acetic acid | in acetone | in acetonitrile | in ethanol | in isopropanol | in methanol | in n-butanol | in n-propanol | in toluene
283.15 K | 0.00336 | 0.00798 | 0.00598 | 0.000869 | 0.000288 | 0.00206 | 0.000596 | 0.000541 | 0.000746
285.65 K | 0.00368 | 0.00872 | 0.00661 | 0.000944 | 0.000321 | 0.0022 | 0.000652 | 0.000587 | 0.000825
288.15 K | 0.00401 | 0.00937 | 0.00734 | 0.00103 | 0.000355 | 0.00242 | 0.000724 | 0.000659 | 0.000919
290.65 K | 0.00445 | 0.0104 | 0.00814 | 0.00117 | 0.000405 | 0.00266 | 0.000828 | 0.000742 | 0.00103
293.15 K | 0.00488 | 0.0114 | 0.00903 | 0.0013 | 0.000445 | 0.00295 | 0.000923 | 0.000835 | 0.00115
295.65 K | 0.00539 | 0.0126 | 0.0101 | 0.00143 | 0.000502 | 0.00325 | 0.00102 | 0.000933 | 0.00128
298.15 K | 0.00598 | 0.0136 | 0.0111 | 0.00158 | 0.00056 | 0.00358 | 0.00114 | 0.00105 | 0.00144
300.65 K | 0.00662 | 0.0148 | 0.0123 | 0.00174 | 0.000629 | 0.00392 | 0.00128 | 0.00115 | 0.00161
303.15 K | 0.00727 | 0.0161 | 0.0137 | 0.00192 | 0.000703 | 0.00431 | 0.0014 | 0.00126 | 0.0018
305.65 K | 0.00811 | 0.0174 | 0.0152 | 0.00212 | 0.000796 | 0.00471 | 0.00155 | 0.00141 | 0.002
308.15 K | 0.00895 | 0.0189 | 0.017 | 0.00235 | 0.000894 | 0.00518 | 0.00171 | 0.00157 | 0.00224
310.65 K | 0.00984 | 0.0206 | 0.019 | 0.00258 | 0.00101 | 0.00572 | 0.00191 | 0.00176 | 0.0025
313.15 K | 0.0108 | 0.0226 | 0.021 | 0.00284 | 0.00112 | 0.00623 | 0.00211 | 0.00194 | 0.00276
315.65 K | 0.0118 | 0.0245 | 0.023 | 0.00311 | 0.00125 | 0.00678 | 0.00232 | 0.00216 | 0.00308
318.15 K | 0.0129 | 0.0269 | 0.0252 | 0.00341 | 0.00139 | 0.00739 | 0.0026 | 0.00241 | 0.0034
